Twelve molecules from PubChem BioAssay (NCI) can be followed below.

Each structure is given as a SMILES string.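 In this assay, cells in 96-well plates receive the compound at five concentrations for 48 hours. Endpoints are linearly interpolated between the surrounding concentrations. Definition used: TGI = concentration required for complete inhibition of growth.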

Among the test systems are SK-MEL-28 melanoma; LOX IMVI melanoma; HCT-15 colon; ACHN renal; CCRF-CEM leukemia; MALME-3M melanoma; OVCAR-8 ovarian; CAKI-1 renal; SK-MEL-2 melanoma; SW-620 colon; NCI-H23 lung; SN12C renal; MDA-N; SK-OV-3 ovarian; IGROV1 ovarian; EKVX NSCLC; 786-0 renal; HCC-2998 colon; TK-10 renal; BT-549 breast.
Assay in all cases: inhibition of tumour cell growth, NCI panel, 48 h

`C/C(=N\NC(=S)N(C)CCN(C)C(=S)N/N=C(\C)c1ccccn1)c1ccccn1`: the TGI in the assay on SK-MEL-28 melanoma came to 19.8 µM; in the assay with LOX IMVI melanoma, 22.6 µM; in the assay on HCT-15 colon, 18.5 µM; with ACHN renal, 11.4 µM; in the assay with CCRF-CEM leukemia, 12.1 µM; in the assay on MALME-3M melanoma, 11.1 µM. Moreover, the TGI with OVCAR-8 ovarian came out at 7.32 µM; in the assay with CAKI-1 renal it was 11.8 µM; with SK-MEL-2 melanoma it was 24.4 µM; in the assay with SW-620 colon, 22.9 µM; in the assay with NCI-H23 lung, 28.5 µM; in the assay with SN12C renal it was 6.91 µM. Moreover, the TGI in the assay with MDA-N is 19.3 µM; with SK-OV-3 ovarian it was 20.1 µM; in the assay on IGROV1 ovarian, 3.96 µM; with EKVX NSCLC, 10.4 µM; in the assay on 786-0 renal, above 100 µM; with HCC-2998 colon it was 38 µM. This molecule also yielded a TGI with TK-10 renal of 7.75 µM.

Turning to `O=C(c1cc2c(c3ccccc13)NCCN=C2C(F)(F)F)C(F)(F)F`, the TGI is 47.8 µM in the assay with SK-MEL-28 melanoma; 38.4 µM in the assay on LOX IMVI melanoma; above 100 µM in the assay on HCT-15 colon; 68.3 µM in the assay with ACHN renal; above 100 µM in the assay on CCRF-CEM leukemia; above 100 µM in the assay with OVCAR-8 ovarian. For the same molecule, the TGI in the assay with CAKI-1 renal is above 100 µM; with SK-MEL-2 melanoma, 44.1 µM; in the assay with SW-620 colon, above 100 µM; in the assay with NCI-H23 lung, above 100 µM; in the assay on MDA-N, above 100 µM; in the assay with SK-OV-3 ovarian it was 93.2 µM. In addition, the TGI was above 100 µM in the assay with IGROV1 ovarian; above 100 µM in the assay on EKVX NSCLC; 84.8 µM in the assay with 786-0 renal; 33 µM in the assay on HCC-2998 colon; 78 µM with TK-10 renal.

Take `COC(=O)/C=C(/OC)[C@H](C)[C@H](/C=C/c1csc(-c2csc(C(C)C)n2)n1)OC`: the TGI in the assay with SK-MEL-28 melanoma is above 100 µM; in the assay on LOX IMVI melanoma, 5.07 µM; in the assay with HCT-15 colon it was above 100 µM; in the assay with ACHN renal, above 100 µM; with CCRF-CEM leukemia it was above 100 µM; in the assay with MALME-3M melanoma, above 100 µM. The TGI in the assay with OVCAR-8 ovarian, in the assay on CAKI-1 renal, in the assay on BT-549 breast, with SK-MEL-2 melanoma, in the assay on SW-620 colon and in the assay on NCI-H23 lung was above 100 µM throughout. Further, the TGI in the assay with SN12C renal, with SK-OV-3 ovarian, with IGROV1 ovarian, with EKVX NSCLC, in the assay with 786-0 renal and in the assay with TK-10 renal was above 100 µM each time.

Take `N#Cc1nc(C(CO)N(Cc2ccccc2)C(=O)O)oc1N` (configuration not stated): the TGI in the assay with SK-MEL-28 melanoma, in the assay on LOX IMVI melanoma, in the assay with HCT-15 colon, with ACHN renal, in the assay on OVCAR-8 ovarian and in the assay on CAKI-1 renal was above 100 µM in each case. Moreover, the TGI in the assay with BT-549 breast, with SK-MEL-2 melanoma, with NCI-H23 lung, with SN12C renal, in the assay with SK-OV-3 ovarian and in the assay on IGROV1 ovarian was above 100 µM each time. Besides, the TGI in the assay on EKVX NSCLC, in the assay on 786-0 renal, in the assay with HCC-2998 colon and with TK-10 renal was above 100 µM throughout.

On to `COC1O[C@H]2[C@H]3[C@@H]1[C@@H](OS(=O)(=O)c1ccc(C)cc1)C(=O)N3C[C@H]2O` (some centres not stated), for which the TGI in the assay on SK-MEL-28 melanoma, with LOX IMVI melanoma, in the assay on HCT-15 colon, in the assay with ACHN renal, in the assay on MALME-3M melanoma and in the assay with OVCAR-8 ovarian was above 100 µM in each case. The TGI with CAKI-1 renal, in the assay on BT-549 breast, in the assay on SK-MEL-2 melanoma, in the assay with SW-620 colon, in the assay with NCI-H23 lung and with SK-OV-3 ovarian was above 100 µM in each case. In addition, the TGI in the assay with EKVX NSCLC, in the assay with 786-0 renal, in the assay on HCC-2998 colon and in the assay on TK-10 renal was above 100 µM throughout.

For the molecule `COc1ccc(-n2c(N)c(C#N)c(C#N)c2-c2ccccc2)cc1`, the TGI with LOX IMVI melanoma, in the assay on HCT-15 colon, in the assay on ACHN renal, with CCRF-CEM leukemia, in the assay with MALME-3M melanoma and in the assay on OVCAR-8 ovarian was above 100 µM each time. Moreover, the TGI with CAKI-1 renal, with BT-549 breast, in the assay on SK-MEL-2 melanoma, with SW-620 colon, in the assay with NCI-H23 lung and in the assay with SN12C renal was above 100 µM in each case. Also, the TGI with SK-OV-3 ovarian, in the assay on IGROV1 ovarian, with EKVX NSCLC, in the assay with 786-0 renal, in the assay with HCC-2998 colon and in the assay with TK-10 renal was above 100 µM each time.

For the molecule `CC(C)SC(NC(=O)C1C(C)(C)CCC1(C)C)C(=O)O` (configuration not stated), the TGI in the assay on SK-MEL-28 melanoma, in the assay with LOX IMVI melanoma, with HCT-15 colon, with ACHN renal, in the assay on CCRF-CEM leukemia and in the assay with OVCAR-8 ovarian was above 100 µM throughout. For the same molecule, the TGI in the assay with SK-MEL-2 melanoma, with SW-620 colon, with NCI-H23 lung, in the assay with SN12C renal, in the assay with MDA-N and in the assay with SK-OV-3 ovarian was above 100 µM throughout. In addition, the TGI with IGROV1 ovarian, with EKVX NSCLC, in the assay on 786-0 renal, with HCC-2998 colon and with TK-10 renal was above 100 µM throughout.

On to `Cc1nc(C(N)=S)sc1C(=O)CC(=O)C(=O)Nc1nc2ccccc2[nH]1`, for which the TGI in the assay on SK-MEL-28 melanoma, in the assay on LOX IMVI melanoma, with HCT-15 colon, in the assay with ACHN renal, with MALME-3M melanoma and in the assay with OVCAR-8 ovarian was above 100 µM each time. The TGI in the assay with CAKI-1 renal, in the assay on BT-549 breast, in the assay on SK-MEL-2 melanoma, in the assay on SW-620 colon, in the assay with NCI-H23 lung and in the assay with SN12C renal was above 100 µM each time. Further, the TGI in the assay on SK-OV-3 ovarian, with IGROV1 ovarian, in the assay on EKVX NSCLC, in the assay with 786-0 renal, in the assay on HCC-2998 colon and in the assay with TK-10 renal was above 100 µM each time.

Take `O=c1[nH]cnc2c1CCCN2`: the TGI with SK-MEL-28 melanoma, with LOX IMVI melanoma, in the assay with HCT-15 colon, in the assay on ACHN renal, in the assay on CCRF-CEM leukemia and with MALME-3M melanoma was above 100 µM throughout. Further, the TGI with OVCAR-8 ovarian, in the assay on CAKI-1 renal, with SK-MEL-2 melanoma, with SW-620 colon, in the assay with NCI-H23 lung and in the assay on SN12C renal was above 100 µM each time. Besides, the TGI with SK-OV-3 ovarian, with IGROV1 ovarian, with EKVX NSCLC, in the assay on 786-0 renal, in the assay with HCC-2998 colon and with TK-10 renal was above 100 µM in each case.

Take `CC(=O)O[C@H]1C(=O)[C@@]2(C)[C@H]([C@H](OC(=O)c3ccccc3)[C@]3(O)C[C@H](OC(=O)[C@H](O)[C@@H](NC(=O)C(C)(C)C)c4ccccc4)C(C)=C1C3(C)C)[C@]1(OC(C)=O)CO[C@@H]1C[C@@H]2O`: the TGI with SK-MEL-28 melanoma, with LOX IMVI melanoma, with HCT-15 colon, in the assay on ACHN renal, in the assay with CCRF-CEM leukemia and in the assay on MALME-3M melanoma was above 10 µM throughout. The TGI is above 3.84 µM in the assay with OVCAR-8 ovarian; above 10 µM in the assay on CAKI-1 renal; above 10 µM with BT-549 breast; above 3.28 µM with SK-MEL-2 melanoma; above 10 µM in the assay on SW-620 colon; above 10 µM with NCI-H23 lung. For the same molecule, the TGI with SN12C renal was above 10 µM; with SK-OV-3 ovarian, 0.368 µM; with IGROV1 ovarian, above 10 µM; with EKVX NSCLC it was above 10 µM; in the assay with 786-0 renal, above 5.47 µM; in the assay on HCC-2998 colon, 0.44 µM. Besides, the TGI in the assay with TK-10 renal is above 10 µM.

In the case of `O=c1c2cc([N+](=O)[O-])ccc2n2n1CCCC2`, the TGI in the assay with SK-MEL-28 melanoma, with LOX IMVI melanoma, in the assay with HCT-15 colon, in the assay on ACHN renal, in the assay with CCRF-CEM leukemia and in the assay with MALME-3M melanoma was above 100 µM throughout. For the same molecule, the TGI with OVCAR-8 ovarian, with CAKI-1 renal, in the assay on SW-620 colon, with NCI-H23 lung, in the assay on SN12C renal and with MDA-N was above 100 µM throughout. Also, the TGI in the assay with SK-OV-3 ovarian, with IGROV1 ovarian, in the assay with EKVX NSCLC, in the assay with 786-0 renal, in the assay with HCC-2998 colon and with TK-10 renal was above 100 µM each time.

`CC(=O)c1cccc(NC(=O)C(=O)Nn2c(N)nnc2N)c1`: the TGI with SK-MEL-28 melanoma, with LOX IMVI melanoma, in the assay on HCT-15 colon, in the assay with ACHN renal, in the assay on CCRF-CEM leukemia and in the assay with MALME-3M melanoma was above 100 µM each time. Moreover, the TGI with OVCAR-8 ovarian, in the assay with CAKI-1 renal, in the assay with SK-MEL-2 melanoma, in the assay with SW-620 colon, with NCI-H23 lung and in the assay on SN12C renal was above 100 µM in each case. For the same molecule, the TGI with SK-OV-3 ovarian, in the assay with IGROV1 ovarian, in the assay on EKVX NSCLC, in the assay on 786-0 renal, with HCC-2998 colon and with TK-10 renal was above 100 µM in each case.
